Source: patent US8202879B2, “Quinazoline derivatives having tyrosine kinase inhibitory activity” (Shionogi & Co., Ltd., priority 2005, dated 2012)
Like-named read-outs stand apart in the source and are kept apart here.

Experiments:
[1] = test system: NCI-N87 cells (human stomach cancer cell strain); assay: in vivo anti-tumor assessment, NCI-N87 cells transplanted into mammary fat pad of nude mouse
Procedure: NCI-N87 cells (human stomach cancer cell strain) were transplanted into a mammary fat pad of a female nude mouse (BALB/cA Jcl-nu/nu, CLEA Japan, Inc) at 5×10^6 cells/mouse (day 0). On day 5, a long diameter and a short diameter of a tumor were measured with a caliper, and mice were divided into groups (N=6) so that a tumor size between groups became equal. A test compound (20, 80 mg/kg) suspended in a 0.5% methylcellulose (MC) solution was orally administered from day 5 on for 15 consecutive days, and the anti-tumor effect was expressed by a ratio (T/C %) of an average value of a tumor size between a compound-administered group (T) and a control (C, 0.5% MC) group on day 20.
Results of in vivo anti-tumor assessment of a compound VIII-11 are shown in Table 54, and results of in vivo anti-tumor assessment of a compound VIII-66 are shown in Table 55.

HER2 = target: T1, HER2 (Homo sapiens, UniProt P04626); assay: Enzyme inhibitory activity on HER2 (time resolution fluorescence, biotinylated poly-Glu-Tyr substrate); assay type: biochemical
T1 construct: purchased Carna Biosciences, Inc; host or cells: insect cell expression system
T1 sequence (P04626 23-1255): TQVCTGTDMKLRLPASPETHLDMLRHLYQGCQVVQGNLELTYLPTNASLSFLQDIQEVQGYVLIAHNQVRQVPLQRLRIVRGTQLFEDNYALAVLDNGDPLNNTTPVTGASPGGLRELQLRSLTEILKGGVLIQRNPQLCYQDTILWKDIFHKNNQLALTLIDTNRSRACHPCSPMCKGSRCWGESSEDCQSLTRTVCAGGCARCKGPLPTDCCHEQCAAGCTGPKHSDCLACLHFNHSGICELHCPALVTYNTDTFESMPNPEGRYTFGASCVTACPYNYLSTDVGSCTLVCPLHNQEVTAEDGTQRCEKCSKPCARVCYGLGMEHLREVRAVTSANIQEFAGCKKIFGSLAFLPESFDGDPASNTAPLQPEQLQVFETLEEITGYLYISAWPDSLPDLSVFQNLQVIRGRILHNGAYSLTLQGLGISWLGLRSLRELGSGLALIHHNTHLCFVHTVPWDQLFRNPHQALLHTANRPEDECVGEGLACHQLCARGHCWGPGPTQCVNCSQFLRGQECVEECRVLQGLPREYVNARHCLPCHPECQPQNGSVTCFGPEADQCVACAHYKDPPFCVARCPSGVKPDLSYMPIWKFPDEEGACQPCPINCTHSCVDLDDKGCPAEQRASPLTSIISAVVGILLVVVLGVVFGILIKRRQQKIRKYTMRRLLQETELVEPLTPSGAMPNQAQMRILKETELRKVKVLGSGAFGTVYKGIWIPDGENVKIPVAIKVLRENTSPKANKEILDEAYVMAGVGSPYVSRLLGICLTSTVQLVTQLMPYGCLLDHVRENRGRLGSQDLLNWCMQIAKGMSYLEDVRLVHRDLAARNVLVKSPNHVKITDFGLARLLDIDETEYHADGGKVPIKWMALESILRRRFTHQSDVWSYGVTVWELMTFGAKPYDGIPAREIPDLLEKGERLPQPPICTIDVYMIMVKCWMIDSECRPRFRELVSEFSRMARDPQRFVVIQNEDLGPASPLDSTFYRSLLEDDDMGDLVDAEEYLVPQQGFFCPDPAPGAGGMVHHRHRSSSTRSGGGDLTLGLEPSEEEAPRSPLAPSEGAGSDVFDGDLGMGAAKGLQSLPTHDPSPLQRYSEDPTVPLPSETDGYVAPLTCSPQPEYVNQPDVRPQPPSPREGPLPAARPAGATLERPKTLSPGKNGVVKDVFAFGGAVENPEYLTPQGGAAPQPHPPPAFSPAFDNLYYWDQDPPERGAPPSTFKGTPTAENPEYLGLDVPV
Method in brief: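 Insect-cell-expressed HER2 (1000 ng/ml working stock) with biotinylated poly-Glu-Tyr (4:1; 3.125 μg/ml stock) and ATP (290 μM solution) in TBS with MgCl2, MnCl2, Na3VO4 and BSA, 60 min at room temperature. 10-point 4-fold dilutions from a 1 mM top solution. Phosphotyrosine detected by TR-FRET with Eu-antibody and streptavidin-XL.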

BT-474 = assay: In vitro cell proliferation inhibition, WST assay; assay type: cell-based, human; details: BT-474 cells, cultured for 3 days, read-out: BT-474 (nM) proliferation inhibitory activity (IC50 value)
Procedure: Test of In Vitro Cell Proliferation Inhibition of Test Compound
As a human-derived cancer cell strain, BT-474 was used. Cells were all cultured in a 37° C., 5% CO2 incubator in a medium in which 10% bovine fetal serum (ICN) and 50 units ml penicillin/60 μg/ml streptomycin solution (GIBCO) were added to Dulbecco's Modified Essential Medium (DMEM, Nacalai Tesque, Inc).

EGFR = target: T2, EGFR (Homo sapiens, UniProt P00533); assay: Enzyme inhibitory activity on EGFR (time resolution fluorescence, biotinylated poly-Glu-Tyr substrate); assay type: biochemical
T2 construct: purchased Carna Biosciences, Inc; host or cells: insect cell expression system
T2 sequence (P00533 25-1210): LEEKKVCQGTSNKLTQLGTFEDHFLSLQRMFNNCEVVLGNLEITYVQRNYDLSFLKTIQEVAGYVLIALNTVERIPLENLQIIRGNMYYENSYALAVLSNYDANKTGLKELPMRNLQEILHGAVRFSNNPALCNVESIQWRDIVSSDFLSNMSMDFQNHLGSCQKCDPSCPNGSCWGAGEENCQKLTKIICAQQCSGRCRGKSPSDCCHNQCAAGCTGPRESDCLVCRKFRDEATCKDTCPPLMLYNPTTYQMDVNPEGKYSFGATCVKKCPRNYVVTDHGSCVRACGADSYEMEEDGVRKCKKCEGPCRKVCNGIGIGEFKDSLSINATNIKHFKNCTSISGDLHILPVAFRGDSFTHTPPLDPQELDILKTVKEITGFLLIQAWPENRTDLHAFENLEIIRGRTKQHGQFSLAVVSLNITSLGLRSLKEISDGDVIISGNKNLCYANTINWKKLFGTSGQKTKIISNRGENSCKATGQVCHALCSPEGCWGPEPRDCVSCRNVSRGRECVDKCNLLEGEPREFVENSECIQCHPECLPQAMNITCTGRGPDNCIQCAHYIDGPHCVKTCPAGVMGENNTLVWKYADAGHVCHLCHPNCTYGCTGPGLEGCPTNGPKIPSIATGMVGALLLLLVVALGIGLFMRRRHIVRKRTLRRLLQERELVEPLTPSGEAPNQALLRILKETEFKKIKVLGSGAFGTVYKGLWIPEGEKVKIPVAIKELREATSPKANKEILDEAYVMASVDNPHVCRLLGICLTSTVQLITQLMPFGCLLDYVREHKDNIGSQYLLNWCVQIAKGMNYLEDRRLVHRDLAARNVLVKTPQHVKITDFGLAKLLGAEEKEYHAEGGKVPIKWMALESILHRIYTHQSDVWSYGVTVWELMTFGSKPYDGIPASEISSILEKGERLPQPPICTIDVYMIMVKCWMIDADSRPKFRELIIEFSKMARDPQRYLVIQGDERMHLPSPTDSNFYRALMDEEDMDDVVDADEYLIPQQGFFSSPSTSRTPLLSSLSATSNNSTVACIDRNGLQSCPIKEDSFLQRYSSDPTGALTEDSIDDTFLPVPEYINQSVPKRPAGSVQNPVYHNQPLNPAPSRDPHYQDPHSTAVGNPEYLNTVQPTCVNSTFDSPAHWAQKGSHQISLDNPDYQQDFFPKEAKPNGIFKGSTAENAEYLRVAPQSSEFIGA
Method in brief: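 Insect-cell-expressed EGFR phosphorylated biotinylated poly-Glu-Tyr (4:1) for 60 min at room temperature in TBS with MgCl2, MnCl2, Na3VO4 and BSA. Enzyme 250 ng/ml, substrate 3.125 μg/ml and ATP 125 μM as working solutions. EDTA stop; Eu anti-phosphotyrosine/streptavidin-XL time-resolved fluorescence read; 10-point 4-fold dilutions.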

[2] = day 5 (start of administration, grouping), 20 mg/kg administrated group, oral, N=6
[3] = day 5 (start of administration, grouping), 80 mg/kg administrated group, oral, N=6
[4] = day 20, 20 mg/kg orally for 15 consecutive days from day 5
[5] = day 20, 80 mg/kg orally for 15 consecutive days from day 5
[6] = HER2 purified from insect cell expression system, ATP solution 290 μM, room temperature, 60 minutes
[7] = EGFR purified from insect cell expression system, ATP solution 125 μM, room temperature, 60 minutes
[8] = enzyme reaction at room temperature for 60 minutes

CC#C/C(=N\OCCN1CCCC1)c1ccc2ncnc(Nc3ccc(OCc4cccc(F)c4)c(Cl)c3)c2c1 [VIII-11]
Mean of tumor size [1, 2]: 197 mm^3 | Mean of tumor size [1, 3]: 197 mm^3 | Mean of tumor size [1, 4]: 356 mm^3 | T/C % (ratio of average tumor size, compound-administered group vs control group) [1, 4]: 54% | Mean of tumor size [1, 5]: 193 mm^3 | T/C % (ratio of average tumor size, compound-administered group vs control group) [1, 5]: 29% | IC50 (HER2; [6]): 45 nM | IC50 (BT-474; Homo sapiens, BT-474, 72 h): 26 nM | IC50 (EGFR; [7]): 43 nM

CC#C/C(=N\OCCN(C)CCO)c1ccc2ncnc(Nc3ccc(OCc4cccc(F)c4)c(Cl)c3)c2c1.Cl.Cl [VIII-66]
Mean of tumor size [1, 2]: 134 mm^3 | Mean of tumor size [1, 3]: 150 mm^3 | Mean of tumor size [1, 4]: 154 mm^3 | T/C % (ratio of average tumor size, compound-administered group vs control group) [1, 4]: 32% | Mean of tumor size [1, 5]: 17 mm^3 | T/C % (ratio of average tumor size, compound-administered group vs control group) [1, 5]: 4% | IC50 (HER2; [6]): 43 nM | IC50 (BT-474): 8 nM | IC50 (EGFR; [7]): 27 nM

CC#C/C(=N\OCCNC[C@H]1CCC(=O)N1)c1ccc2ncnc(Nc3ccc(OCc4cccc(F)c4)c(Cl)c3)c2c1 [VIII-52]
IC50 (HER2; [6]): 28 nM | IC50 (BT-474): 9 nM | IC50 (EGFR; [7]): 19 nM

CNCCO/N=C(\C#CC1CC1)c1ccc2ncnc(Nc3ccc(OCc4cccc(F)c4)c(Cl)c3)c2c1 [VIII-120]
IC50 (HER2; [6]): 29 nM | IC50 (BT-474; Homo sapiens, BT-474, 72 h): 32 nM | IC50 (EGFR; [7]): 33 nM

CC#CC(=NOCC1CN(C)CCN1C)c1ccc2ncnc(Nc3ccc(OCc4ccccn4)c(Cl)c3)c2c1 (stereo not drawn) [VIII-172]
IC50 (HER2; [8]): 16 nM | IC50 (BT-474; Homo sapiens, BT-474, 72 h): 70 nM | IC50 (EGFR; [8]): 14 nM

Fc1cccc(COc2ccc(Nc3ncnc4ccc(C(=NOCCN5CCOCC5)c5ccccc5)cc34)cc2Cl)c1 [VIII-13]
IC50 (HER2; [6]): 888 nM | IC50 (BT-474; Homo sapiens, BT-474, 72 h): 64 nM | IC50 (EGFR; [7]): 300 nM

CC#C/C(=N\OC[C@@H](C)N)c1ccc2ncnc(Nc3ccc(OCc4ccccn4)c(Cl)c3)c2c1 [VIII-129]
IC50 (HER2; [8]): 6.3 nM | IC50 (BT-474; Homo sapiens, BT-474, 72 h): 12 nM | IC50 (EGFR; [8]): 7.1 nM

CC#C/C(=N\OCCN1CCNC(=O)C1)c1ccc2ncnc(Nc3ccc4c(cnn4Cc4cccc(F)c4)c3)c2c1 [VIII-196]
IC50 (HER2; [8]): 20 nM | IC50 (BT-474; Homo sapiens, BT-474, 72 h): 28 nM | IC50 (EGFR; [8]): 11 nM

CC#C/C(=N\O[C@H]1CN[C@H](CO)C1)c1ccc2ncnc(Nc3ccc(OCc4cccc(F)c4)c(Cl)c3)c2c1 [VIII-92]
IC50 (HER2; [6]): 36 nM | IC50 (BT-474): 29 nM | IC50 (EGFR; [7]): 32 nM

CC#C/C(=N\OCCNC[C@H]1CCCO1)c1ccc2ncnc(Nc3ccc4c(cnn4Cc4cccc(F)c4)c3)c2c1 [VIII-188]
IC50 (HER2; [8]): 30 nM | IC50 (BT-474; Homo sapiens, BT-474, 72 h): 40 nM | IC50 (EGFR; [8]): 20 nM

CC#CC(=NOCCN1CCOCC1)c1ccc2ncnc(Nc3ccc(OCc4cccc(F)c4)c(Cl)c3)c2c1 [VIII-10]
IC50 (HER2; [6]): 484 nM | IC50 (BT-474; Homo sapiens, BT-474, 72 h): 27 nM | IC50 (EGFR; [7]): 409 nM

CC#C/C(=N\OCCNC[C@@H]1COC(=O)N1)c1ccc2ncnc(Nc3ccc(OCc4cccc(F)c4)c(Cl)c3)c2c1 [VIII-59]
IC50 (HER2; [6]): 278 nM | IC50 (BT-474): 11 nM | IC50 (EGFR; [7]): 115 nM

CC#C/C(=N\OCCNC)c1ccc2ncnc(Nc3ccc(OCc4cccc(F)c4)c(Cl)c3)c2c1 [VIII-27]
IC50 (HER2; [6]): 43 nM | IC50 (BT-474): 13 nM | IC50 (EGFR; [7]): 33 nM

CC#C/C(=N\OC[C@H]1CCCN1CC#N)c1ccc2ncnc(Nc3ccc(OCc4cccc(F)c4)c(Cl)c3)c2c1 [VIII-86]
IC50 (HER2; [6]): 304 nM | IC50 (BT-474; Homo sapiens, BT-474, 72 h): 13 nM | IC50 (EGFR; [7]): 244 nM

CC#C/C(=N\OCC(=O)NCCOS(C)(=O)=O)c1ccc2ncnc(Nc3ccc(OCc4cccc(F)c4)c(Cl)c3)c2c1 [VIII-225]
IC50 (HER2; [8]): 70 nM | IC50 (BT-474; Homo sapiens, BT-474, 72 h): 7 nM | IC50 (EGFR; [8]): 47 nM

CC#C/C(=N\OC[C@@H]1C[C@H](O)CN1)c1ccc2ncnc(Nc3ccc(OCc4cccc(F)c4)c(Cl)c3)c2c1 [VIII-82]
IC50 (HER2; [6]): 7.5 nM | IC50 (BT-474): 16 nM | IC50 (EGFR; [7]): 7.6 nM

CC#C/C(=N\OCCNC)c1ccc2ncnc(Nc3ccc(OCc4ccccn4)c(Cl)c3)c2c1 [VIII-182]
IC50 (HER2; [8]): 7.3 nM | IC50 (BT-474; Homo sapiens, BT-474, 72 h): 20 nM | IC50 (EGFR; [8]): 4.7 nM

CC#C/C(=N\OCC(=O)NCCN(C)C)c1ccc2ncnc(Nc3ccc(OCc4cccc(F)c4)c(Cl)c3)c2c1 [VIII-226]
IC50 (HER2; [8]): 10 nM | IC50 (BT-474; Homo sapiens, BT-474, 72 h): 5 nM | IC50 (EGFR; [8]): 20 nM

CC#C/C(=N\OC[C@H]1CCCN1C)c1ccc2ncnc(Nc3ccc(OCc4ccccn4)c(Cl)c3)c2c1 [VIII-158]
IC50 (HER2; [8]): 3.8 nM | IC50 (BT-474; Homo sapiens, BT-474, 72 h): 27 nM | IC50 (EGFR; [8]): 3.8 nM

CC#C/C(=N\OCCN1CCC(NS(C)(=O)=O)CC1)c1ccc2ncnc(Nc3ccc(OCc4cccc(F)c4)c(Cl)c3)c2c1 [VIII-100]
IC50 (HER2; [6]): 203 nM | IC50 (BT-474; Homo sapiens, BT-474, 72 h): 16 nM | IC50 (EGFR; [7]): 208 nM

CC#C/C(=N\OCCNC)c1ccc2ncnc(Nc3ccc(Sc4ccccc4)cc3)c2c1 [VIII-213]
IC50 (HER2; [8]): 25 nM | IC50 (BT-474; Homo sapiens, BT-474, 72 h): 33 nM | IC50 (EGFR; [8]): 18 nM

CC#C/C(=N\OC[C@H]1CCCN1CC(=O)OC)c1ccc2ncnc(Nc3ccc(OCc4cccc(F)c4)c(Cl)c3)c2c1 [VIII-87]
IC50 (HER2; [6]): 476 nM | IC50 (BT-474): 6 nM | IC50 (EGFR; [7]): 642 nM
